Measured values taken from ChEMBL document CHEMBL1201862, “PubChem BioAssay data set” (2004).
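48-hour exposure; five concentrations; linearly interpolated endpoints. GI50: concentration for 50% inhibition of growth.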 Active and inactive are the calls of the source. No stated cut-off is given here; in the data, active = GI50 up to about 1.1 µM and inactive = higher.

Legend:
Experiment in all cases: NCI-60 cell line screen, 48 h
786-0 = test system: 786-0
OVCAR-3 = test system: OVCAR-3
OVCAR-8 = test system: OVCAR-8
NCI-H460 = test system: NCI-H460
OVCAR-5 = test system: OVCAR-5
COLO 205 = test system: COLO 205
HT-29 = test system: HT-29
MCF7 = test system: MCF7
EKVX = test system: EKVX
SNB-75 = test system: SNB-75
NCI/ADR-RES = test system: NCI/ADR-RES
HOP-62 = test system: HOP-62
KM12 = test system: KM12
CCRF-CEM = test system: CCRF-CEM
BT-549 = test system: BT-549
SW-620 = test system: SW-620
SN12C = test system: SN12C
NCI-H522 = test system: NCI-H522
MDA-N = test system: MDA-N
HCC 2998 = test system: HCC 2998

Row | Structure (SMILES) | GI50 (786-0) | GI50 (OVCAR-3) | GI50 (OVCAR-8) | GI50 (NCI-H460) | GI50 (OVCAR-5) | GI50 (COLO 205) | GI50 (HT-29) | GI50 (MCF7) | GI50 (EKVX) | GI50 (SNB-75) | GI50 (NCI/ADR-RES) | GI50 (HOP-62) | GI50 (KM12) | GI50 (CCRF-CEM) | GI50 (BT-549) | GI50 (SW-620) | GI50 (SN12C) | GI50 (NCI-H522) | GI50 (MDA-N) | GI50 (HCC 2998)
1 | O=c1[nH]c2ccc(CC(=S)N3CCOCC3)cc2o1 | > 100 µM (inactive) | > 100 µM (inactive) | > 100 µM (inactive) | > 100 µM (inactive) | > 100 µM (inactive) | > 100 µM (inactive) | > 100 µM (inactive) | > 100 µM (inactive) | > 100 µM (inactive) | > 100 µM (inactive) | > 100 µM (inactive) | > 100 µM (inactive) | > 100 µM (inactive) | 89.9 µM (inactive) | > 100 µM (inactive) | > 100 µM (inactive) | – | – | – | –
2 | C=C(C)[C@H]1C2=CC(C(=O)OC)=C(C[C@H](C(=C)C)[C@@H](O)[C@@H](O)C3=C[C@H]1OC3=O)O2 | > 100 µM (inactive) | > 100 µM (inactive) | > 100 µM (inactive) | – | > 100 µM (inactive) | > 100 µM (inactive) | > 100 µM (inactive) | > 100 µM (inactive) | > 100 µM (inactive) | 37.7 µM (inactive) | > 100 µM (inactive) | > 100 µM (inactive) | > 100 µM (inactive) | 87.9 µM (inactive) | > 100 µM (inactive) | > 100 µM (inactive) | > 100 µM (inactive) | > 100 µM (inactive) | > 100 µM (inactive) | –
3 | CCOC(=O)c1cc2c(C(=O)c3ccc([N+](=O)[O-])cc3)c(C(C)=O)ccc2[nH]1 | 7.36 µM (inactive) | > 100 µM (inactive) | – | 82.6 µM (inactive) | > 100 µM (inactive) | > 100 µM (inactive) | > 100 µM (inactive) | > 100 µM (inactive) | > 100 µM (inactive) | 11.6 µM (inactive) | – | 4.43 µM (inactive) | > 100 µM (inactive) | > 100 µM (inactive) | 38.5 µM (inactive) | > 100 µM (inactive) | 72.8 µM (inactive) | 8.2 µM (inactive) | 11.8 µM (inactive) | > 100 µM (inactive)
4 | OC1c2ccccc2CCC1C(O)(C(F)(F)F)C(F)(F)F (stereo not given) | > 100 µM (inactive) | 58.6 µM (inactive) | > 100 µM (inactive) | > 100 µM (inactive) | > 100 µM (inactive) | > 100 µM (inactive) | > 100 µM (inactive) | 46.3 µM (inactive) | > 100 µM (inactive) | 45.8 µM (inactive) | > 100 µM (inactive) | > 100 µM (inactive) | > 100 µM (inactive) | > 100 µM (inactive) | – | > 100 µM (inactive) | > 100 µM (inactive) | > 100 µM (inactive) | > 100 µM (inactive) | > 100 µM (inactive)
5 | CCn1c(-c2ccc(OC(C)=O)cc2)c(C)c2cc(OC(C)=O)ccc21 [ZINDOXIFENE] | 21.9 µM (inactive) | 16.7 µM (inactive) | 20 µM (inactive) | 6.04 µM (inactive) | 24.9 µM (inactive) | 21.7 µM (inactive) | 29.5 µM (inactive) | 18 µM (inactive) | 17.9 µM (inactive) | 16.5 µM (inactive) | 24.9 µM (inactive) | 21.3 µM (inactive) | 12.9 µM (inactive) | 23.3 µM (inactive) | 29.4 µM (inactive) | 23.4 µM (inactive) | 27.5 µM (inactive) | 17.4 µM (inactive) | 17.3 µM (inactive) | –
6 | CSC1(CC(=O)N2CCCCC2)C(=O)Nc2ccccc21 (stereo not given) | > 100 µM (inactive) | > 100 µM (inactive) | – | > 100 µM (inactive) | > 100 µM (inactive) | > 100 µM (inactive) | > 100 µM (inactive) | > 100 µM (inactive) | > 100 µM (inactive) | > 100 µM (inactive) | > 100 µM (inactive) | > 100 µM (inactive) | > 100 µM (inactive) | – | > 100 µM (inactive) | > 100 µM (inactive) | – | – | – | > 100 µM (inactive)
7 | O=c1[nH]c(N/N=C\C(O)C(O)C(O)C(O)CO)nc2ccccc12 (stereo not given) | > 100 µM (inactive) | > 100 µM (inactive) | > 100 µM (inactive) | > 100 µM (inactive) | > 100 µM (inactive) | > 100 µM (inactive) | > 100 µM (inactive) | > 100 µM (inactive) | > 100 µM (inactive) | > 100 µM (inactive) | > 100 µM (inactive) | > 100 µM (inactive) | > 100 µM (inactive) | > 100 µM (inactive) | > 100 µM (inactive) | > 100 µM (inactive) | > 100 µM (inactive) | – | > 100 µM (inactive) | –
8 | CCOC(=O)CC(=O)C(=O)NN=C1NCCCN1 | > 100 µM (inactive) | > 100 µM (inactive) | > 100 µM (inactive) | > 100 µM (inactive) | > 100 µM (inactive) | > 100 µM (inactive) | > 100 µM (inactive) | > 100 µM (inactive) | > 100 µM (inactive) | > 100 µM (inactive) | – | > 100 µM (inactive) | > 100 µM (inactive) | > 100 µM (inactive) | > 100 µM (inactive) | > 100 µM (inactive) | > 100 µM (inactive) | – | > 100 µM (inactive) | > 100 µM (inactive)
9 | C=C1C(=O)O[C@@H]2/C=C(/C)[C@@H](OC(C)=O)C/C=C(\C)C(O)[C@@H](OC(=O)/C(C)=C\C)C12 (stereo not given in full) | 15.1 µM (inactive) | 35.7 µM (inactive) | 26.8 µM (inactive) | 39 µM (inactive) | 58.2 µM (inactive) | 18.1 µM (inactive) | 20.6 µM (inactive) | 27.6 µM (inactive) | 32.1 µM (inactive) | 79.8 µM (inactive) | 32.7 µM (inactive) | > 100 µM (inactive) | 68.7 µM (inactive) | 9.53 µM (inactive) | 20.1 µM (inactive) | 16.5 µM (inactive) | 21 µM (inactive) | 13.4 µM (inactive) | – | 24.6 µM (inactive)
10 | N/C(=N\c1ccc(Cl)cc1)NS(=O)(=O)c1cccc2nsnc12 | 24.7 µM (inactive) | 44.3 µM (inactive) | 27.6 µM (inactive) | 19.1 µM (inactive) | 55.7 µM (inactive) | – | 55.6 µM (inactive) | 36.2 µM (inactive) | 19.7 µM (inactive) | > 100 µM (inactive) | 31.3 µM (inactive) | 94.2 µM (inactive) | 34.3 µM (inactive) | – | 25.2 µM (inactive) | 66.1 µM (inactive) | 25.4 µM (inactive) | 5.92 µM (inactive) | 23.7 µM (inactive) | –
11 | CC(=O)OC1CCC2(C)C(=CC(C3C=C4CC(OC(C)=O)CCC4(C)C4=C3C3CC5OC6(CCC(C)CO6)C(C)C5C3(C)CC4)C3=C2CCC2(C)C3CC3OC4(CCC(C)CO4)C(C)C32)C1 (stereo not given) | 16.1 µM (inactive) | 15.1 µM (inactive) | 11.1 µM (inactive) | – | 17.7 µM (inactive) | 17.6 µM (inactive) | 14 µM (inactive) | 10.3 µM (inactive) | 17.9 µM (inactive) | 16.3 µM (inactive) | 17.2 µM (inactive) | 15.5 µM (inactive) | 18.2 µM (inactive) | – | 15.6 µM (inactive) | – | 17.6 µM (inactive) | 6.17 µM (inactive) | 17.2 µM (inactive) | –
12 | C#CCOC(=O)c1ccccc1O | > 100 µM (inactive) | – | > 100 µM (inactive) | > 100 µM (inactive) | > 100 µM (inactive) | > 100 µM (inactive) | – | > 100 µM (inactive) | > 100 µM (inactive) | > 100 µM (inactive) | > 100 µM (inactive) | > 100 µM (inactive) | > 100 µM (inactive) | > 100 µM (inactive) | > 100 µM (inactive) | > 100 µM (inactive) | > 100 µM (inactive) | > 100 µM (inactive) | > 100 µM (inactive) | –
13 | COC(=O)C1(NC(=O)C(CC(=O)OCc2ccccc2)NC(=O)OCc2ccccc2)CCCCCC1 (stereo not given) | 38.5 µM (inactive) | 26.1 µM (inactive) | 27.2 µM (inactive) | 34.8 µM (inactive) | 39.2 µM (inactive) | 21.1 µM (inactive) | 22 µM (inactive) | 33 µM (inactive) | 47.6 µM (inactive) | 35.1 µM (inactive) | 21 µM (inactive) | 10.1 µM (inactive) | 50.1 µM (inactive) | – | 17.4 µM (inactive) | 42.8 µM (inactive) | – | 69.3 µM (inactive) | 24.7 µM (inactive) | –
14 | C=C(c1ccccc1)[C@@]1(O)CC[C@@H]1N(CC#N)Cc1ccccc1 | 18.4 µM (inactive) | 12.3 µM (inactive) | 33.4 µM (inactive) | 44.3 µM (inactive) | 53.6 µM (inactive) | 16.3 µM (inactive) | 19.8 µM (inactive) | – | 37.7 µM (inactive) | 33.9 µM (inactive) | 19.7 µM (inactive) | 97.3 µM (inactive) | 28.6 µM (inactive) | 32 µM (inactive) | 19.9 µM (inactive) | 18.2 µM (inactive) | 20.1 µM (inactive) | 20.6 µM (inactive) | 22.3 µM (inactive) | 21.2 µM (inactive)
15 | CC(NNC(=O)c1ccncc1)c1cccc(C(F)(F)F)c1 (stereo not given) | > 100 µM (inactive) | 0.265 µM (active) | > 100 µM (inactive) | > 100 µM (inactive) | > 100 µM (inactive) | > 100 µM (inactive) | > 100 µM (inactive) | > 100 µM (inactive) | > 100 µM (inactive) | > 100 µM (inactive) | > 100 µM (inactive) | > 100 µM (inactive) | > 100 µM (inactive) | > 100 µM (inactive) | – | > 100 µM (inactive) | > 100 µM (inactive) | > 100 µM (inactive) | > 100 µM (inactive) | > 100 µM (inactive)
